Data reported in PubChem BioAssay AID256 (DTP/NCI, 2004).
“And” between values parts separate entries of the source, which are not always exact repeats. Identical values can stand only once. Toxic doses and inconclusive results are not listed. The calls were made as follows: active = survival T/C of 150% or more; inactive = T/C below 125% in these data.

Tested on: CD2F1 mice, L1210 leukemia ip, survival T/C
Test: NCI In Vivo Anticancer Drug Screen. Data for tumor model L1210 Leukemia (intraperitoneal) in CD2F1 (CDF1) mice
Conditions: higher = longer survival
Summary of the method: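 Each value reflects a quotient of treated over vehicle control outcomes in mice with a transplanted tumor.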

[1] = endpoint: mean survival time, dose: 100.0 mg/kg/injection, schedule: Q01DX001 (ip), vehicle: saline with Tween-80
[2] = endpoint: mean survival time, dose: 200.0 mg/kg/injection, schedule: Q01DX001 (ip), vehicle: saline with Tween-80
[3] = endpoint: mean survival time, dose: 400.0 mg/kg/injection, schedule: Q01DX001 (ip), vehicle: saline with Tween-80
[4] = endpoint: mean survival time, dose: 25.0 mg/kg/injection, schedule: Q04DX002 (ip), vehicle: saline with Tween-80
[5] = endpoint: mean survival time, dose: 100.0 mg/kg/injection, schedule: Q01DX009 (ip), vehicle: saline with Tween-80
[6] = endpoint: mean survival time, dose: 25.0 mg/kg/injection, schedule: Q01DX009 (ip), vehicle: saline
[7] = endpoint: mean survival time, dose: 50.0 mg/kg/injection, schedule: Q01DX009 (ip), vehicle: saline
[8] = endpoint: mean survival time, dose: 100.0 mg/kg/injection, schedule: Q01DX009 (ip), vehicle: saline
[9] = endpoint: mean survival time, dose: 200.0 mg/kg/injection, schedule: Q01DX009 (ip), vehicle: saline with Tween-80
[10] = endpoint: mean survival time, dose: 400.0 mg/kg/injection, schedule: Q01DX009 (ip), vehicle: saline with Tween-80
[11] = endpoint: mean survival time, dose: 100.0 mg/kg/injection, schedule: Q04DX003 (ip), vehicle: saline with Tween-80
[12] = endpoint: mean survival time, dose: 200.0 mg/kg/injection, schedule: Q04DX003 (ip), vehicle: saline with Tween-80

Measured: T/C

CC1CC(C)(C)N=C(Cc2ccccc2)O1 (configuration not stated)
inactive: [1] 101 % of control | [2] 93 % of control | [3] 96 % of control

C[C@]12CC[C@H](O)CC1=CC[C@@H]1[C@@H]2CC[C@]2(C)C(=O)CC[C@@H]12
inactive: endpoint: mean survival time, dose: 50.0 mg/kg/injection, schedule: Q01DX009 (ip), vehicle: Klucel (hydroxypropylcellulose) (HPC) 98 % of control | endpoint: mean survival time, dose: 100.0 mg/kg/injection, schedule: Q01DX009 (ip), vehicle: Klucel (hydroxypropylcellulose) (HPC) 102 % of control | endpoint: mean survival time, dose: 200.0 mg/kg/injection, schedule: Q01DX009 (ip), vehicle: Klucel (hydroxypropylcellulose) (HPC) 94 % of control | endpoint: median survival time, dose: 25.0 mg/kg/injection, schedule: Q01DX009 (ip), vehicle: saline with Tween-80 101 % of control | endpoint: median survival time, dose: 50.0 mg/kg/injection, schedule: Q01DX009 (ip), vehicle: saline with Tween-80 101 % of control | endpoint: median survival time, dose: 100.0 mg/kg/injection, schedule: Q01DX009 (ip), vehicle: saline with Tween-80 92 % of control | endpoint: median survival time, dose: 200.0 mg/kg/injection, schedule: Q01DX009 (ip), vehicle: saline with Tween-80 92 % of control | endpoint: median survival time, dose: 400.0 mg/kg/injection, schedule: Q01DX009 (ip), vehicle: saline with Tween-80 91 % of control

O=S(=O)(N=C1C(Cl)=C(Cl)C(=NS(=O)(=O)c2ccccc2)C(Cl)=C1Cl)c1ccccc1
inactive: endpoint: mean survival time, dose: 100.0 mg/kg/injection, schedule: Q04DX003 (ip), vehicle: Klucel (hydroxypropylcellulose) (HPC) 97 % of control | endpoint: mean survival time, dose: 200.0 mg/kg/injection, schedule: Q04DX003 (ip), vehicle: Klucel (hydroxypropylcellulose) (HPC) 95 % of control | endpoint: mean survival time, dose: 400.0 mg/kg/injection, schedule: Q04DX003 (ip), vehicle: Klucel (hydroxypropylcellulose) (HPC) 93 % of control

COc1ccc(NC(=O)Oc2ccc(Cl)cc2Cl)cc1
inactive: endpoint: mean survival time, dose: 25.0 mg/kg/injection, schedule: Q01DX009 (ip), vehicle: saline with Tween-80 112 % of control | [4] 100 % of control | endpoint: mean survival time, dose: 50.0 mg/kg/injection, schedule: Q01DX009 (ip), vehicle: saline with Tween-80 112 % of control | endpoint: mean survival time, dose: 50.0 mg/kg/injection, schedule: Q04DX002 (ip), vehicle: saline with Tween-80 100 % of control | [5] 101 % of control | endpoint: mean survival time, dose: 100.0 mg/kg/injection, schedule: Q04DX002 (ip), vehicle: saline with Tween-80 95 % of control and 98 % of control | endpoint: mean survival time, dose: 400.0 mg/kg/injection, schedule: Q04DX002 (ip), vehicle: saline with Tween-80 102 % of control

Cc1cc(C(O)(C(=O)O)c2ccccc2)c(C)c(C)c1C (configuration not stated)
inactive: endpoint: mean survival time, dose: 75.0 mg/kg/injection, schedule: Q01DX001 (ip), vehicle: other 90 % of control | endpoint: mean survival time, dose: 150.0 mg/kg/injection, schedule: Q01DX001 (ip), vehicle: other 94 % of control | endpoint: mean survival time, dose: 300.0 mg/kg/injection, schedule: Q01DX001 (ip), vehicle: other 102 % of control

COc1ccc(CC(=O)NC(C)Cc2ccc(OC)c(OC)c2)cc1OC (configuration not stated)
inactive: endpoint: mean survival time, dose: 12.5 mg/kg/injection, schedule: Q01DX009 (ip), vehicle: water 91 % of control | endpoint: mean survival time, dose: 25.0 mg/kg/injection, schedule: Q01DX009 (ip), vehicle: water 89 % of control | endpoint: mean survival time, dose: 50.0 mg/kg/injection, schedule: Q01DX009 (ip), vehicle: water 95 % of control | endpoint: mean survival time, dose: 100.0 mg/kg/injection, schedule: Q01DX009 (ip), vehicle: water 94 % of control | endpoint: mean survival time, dose: 200.0 mg/kg/injection, schedule: Q01DX009 (ip), vehicle: water 91 % of control

Cc1ccc(C(C)C)c(OCC[N+]2(CCOc3cc(C)ccc3C(C)C)CC=CC2)c1
inactive: endpoint: mean survival time, dose: 6.25 mg/kg/injection, schedule: Q04DX002 (ip), vehicle: saline with Tween-80 100 % of control | endpoint: mean survival time, dose: 12.5 mg/kg/injection, schedule: Q04DX002 (ip), vehicle: saline with Tween-80 94 % of control | [4] 100 % of control

CC(=O)OC(C)CC(C)(C)OC(C)=O (configuration not stated)
inactive: [1] 95 % of control | [2] 92 % of control | [3] 103 % of control

Nc1nc([Se]Cc2ccc([N+](=O)[O-])cc2)c2ncn(C3OC(CO)C(O)C3O)c2n1 (configuration not stated)
inactive: [6] 111 % of control | [7] 119 % of control | [8] 100 % of control

O=Cc1ccc(C(=O)O)cc1
inactive: [5] 95 % of control | [9] 98 % of control | [10] 101 % of control

N=C(N)SCc1cccs1
inactive: [6] 100 % of control | [7] 103 % of control | [8] 95 % of control

C=CC[n+]1cc2c3ccccc3c(N)cc2c2ccccc21
inactive: endpoint: mean survival time, dose: 1.56 mg/kg/injection, schedule: Q04DX003 (ip), vehicle: water 106 % of control | endpoint: mean survival time, dose: 3.13 mg/kg/injection, schedule: Q04DX003 (ip), vehicle: water 108 % of control | endpoint: mean survival time, dose: 6.25 mg/kg/injection, schedule: Q04DX003 (ip), vehicle: water 98 % of control

O=Cc1cc([N+](=O)[O-])ccc1OCC(=O)O
inactive: [5] 92 % of control | [9] 95 % of control | [10] 96 % of control

O=P(Cl)(Oc1cccc2c(OP(=O)(Cl)N(CCCl)CCCl)cccc12)N(CCCl)CCCl (configuration not stated)
inactive: endpoint: mean survival time, dose: 31.25 mg/kg/injection, schedule: Q01DX001 (ip), vehicle: distilled water + Tween-80 100 % of control | endpoint: mean survival time, dose: 62.5 mg/kg/injection, schedule: Q01DX001 (ip), vehicle: distilled water + Tween-80 101 % of control | endpoint: mean survival time, dose: 125.0 mg/kg/injection, schedule: Q01DX001 (ip), vehicle: distilled water + Tween-80 91 % of control | endpoint: mean survival time, dose: 250.0 mg/kg/injection, schedule: Q01DX001 (ip), vehicle: distilled water + Tween-80 95 % of control | endpoint: mean survival time, dose: 500.0 mg/kg/injection, schedule: Q01DX001 (ip), vehicle: distilled water + Tween-80 92 % of control

O=C(Cc1ccccn1)NCC(O)c1ccccc1 (configuration not stated)
inactive: endpoint: mean survival time, dose: 100.0 mg/kg/injection, schedule: Q04DX003 (ip), vehicle: saline 89 % of control | endpoint: mean survival time, dose: 200.0 mg/kg/injection, schedule: Q04DX003 (ip), vehicle: saline 102 % of control | endpoint: mean survival time, dose: 400.0 mg/kg/injection, schedule: Q04DX003 (ip), vehicle: saline 100 % of control

O=C1C=C(c2ccccc2)OC(=O)C1C(=O)c1ccccc1 (configuration not stated)
inactive: [1] 98 % of control | [2] 94 % of control

COC(=O)Nc1ccc(NC(=O)c2cscn2)c(NC(=O)OC)n1
inactive: [11] 98 % of control | [12] 91 % of control

CC(=O)Nc1ccc(C(=O)C=P(c2ccccc2)(c2ccccc2)c2ccccc2)cc1
inactive: endpoint: mean survival time, dose: 100.0 mg/kg/injection, schedule: Q01DX001 (ip), vehicle: saline 101 % of control | endpoint: mean survival time, dose: 200.0 mg/kg/injection, schedule: Q01DX001 (ip), vehicle: saline 97 % of control | endpoint: mean survival time, dose: 400.0 mg/kg/injection, schedule: Q01DX001 (ip), vehicle: saline 97 % of control

N#CC[CH2][Sn]([Br])([Br])[CH2]CC#N
inactive: endpoint: mean survival time, dose: 0.78 mg/kg/injection, schedule: Q01DX009 (ip), vehicle: saline 97 % of control | endpoint: mean survival time, dose: 1.56 mg/kg/injection, schedule: Q01DX009 (ip), vehicle: saline 94 % of control | endpoint: mean survival time, dose: 3.12 mg/kg/injection, schedule: Q01DX009 (ip), vehicle: saline 92 % of control and 98 % of control | endpoint: mean survival time, dose: 6.25 mg/kg/injection, schedule: Q01DX009 (ip), vehicle: saline 105 % of control and 107 % of control | endpoint: mean survival time, dose: 12.5 mg/kg/injection, schedule: Q01DX009 (ip), vehicle: saline 94 % of control and 101 % of control and 107 % of control | [6] 95 % of control and 97 % of control | [7] 89 % of control

CCCCCCCCCCCCCCCCCCC(C)c1ccccc1 (configuration not stated)
inactive: [1] 101 % of control | [2] 97 % of control | [3] 101 % of control

CCCCCCCCCCC(C(=O)OCC)P(=O)(OCC)OCC (configuration not stated)
inactive: endpoint: mean survival time, dose: 75.0 mg/kg/injection, schedule: Q01DX001 (ip), vehicle: saline 98 % of control | endpoint: mean survival time, dose: 150.0 mg/kg/injection, schedule: Q01DX001 (ip), vehicle: saline 102 % of control | endpoint: mean survival time, dose: 300.0 mg/kg/injection, schedule: Q01DX001 (ip), vehicle: saline 96 % of control

COc1ccc(NC2=C(C)C(=O)C3=C(C2=O)[C@H](COC(N)=O)[C@]2(OC)[C@@H]4N[C@@H]4CN32)cc1OC
inactive: endpoint: median survival time, dose: 3.0 mg/kg/injection, schedule: Q01DX001 (ip), vehicle: water 124 % of control and 111 % of control | endpoint: median survival time, dose: 6.0 mg/kg/injection, schedule: Q01DX001 (ip), vehicle: water 124 % of control | endpoint: median survival time, dose: 24.0 mg/kg/injection, schedule: Q01DX001 (ip), vehicle: water 110 % of control

COc1cc2c(cc1OC)C1CC(O)C3CCCCC3N1CC2 (configuration not stated)
inactive: [11] 93 % of control | [12] 93 % of control

O=[N+]([O-])c1ccc(/C=C2/c3ccccc3-c3nc4ccccc4cc32)cc1
inactive: [1] 93 % of control | [2] 87 % of control | [3] 93 % of control

O=NN1C(=O)C2CC3CC(C2)CC1C3
inactive: endpoint: mean survival time, dose: 12.5 mg/kg/injection, schedule: Q04DX003 (ip), vehicle: acetone 94 % of control
